In patent publication US20060116400A1, “Oxazolidinone and/or isoxazoline derivatives as antibacterial agents” (AstraZeneca AB, priority 2002, published 2006):

What was measured:
MAO-A = biological target: T1, MAO-A (Homo sapiens, UniProt P21397); test: MAO-A inhibition (Ki); assay type: biochemical; conditions: * = approximate values
T1 sequence (P21397 1-527): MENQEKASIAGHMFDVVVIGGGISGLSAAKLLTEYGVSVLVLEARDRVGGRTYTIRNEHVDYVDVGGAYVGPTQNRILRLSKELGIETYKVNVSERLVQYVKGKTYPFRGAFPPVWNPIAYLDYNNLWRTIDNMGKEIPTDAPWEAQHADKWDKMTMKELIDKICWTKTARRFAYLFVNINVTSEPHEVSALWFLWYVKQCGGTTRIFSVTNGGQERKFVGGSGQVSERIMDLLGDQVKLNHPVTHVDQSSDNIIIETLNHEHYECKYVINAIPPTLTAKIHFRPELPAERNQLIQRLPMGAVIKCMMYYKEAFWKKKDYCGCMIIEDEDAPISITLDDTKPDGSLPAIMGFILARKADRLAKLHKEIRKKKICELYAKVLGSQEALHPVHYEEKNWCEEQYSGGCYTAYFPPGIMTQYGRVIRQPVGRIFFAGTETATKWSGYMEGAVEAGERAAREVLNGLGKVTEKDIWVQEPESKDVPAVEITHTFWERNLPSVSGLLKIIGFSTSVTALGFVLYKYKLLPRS

melting point | Ki (MAO-A) [µM] | Compound
182 °C | – | O=C1O[C@@H](Cn2ccnn2)CN1c1ccc(-c2ccc(C3=NOC(C(O)c4ccccc4)C3)nc2)c(F)c1 (single isomer, unassigned) [Example 26]
85 °C | – | CC(C)C(OC(=O)Cc1ccc2ccccc2c1)C1CC(c2ccc(-c3ccc(N4C[C@H](Cn5ccnn5)OC4=O)cc3F)cn2)=NO1 (single isomer, unassigned) [Example 30]
155 °C | – | CC(C)C(O)C1CC(c2ccc(-c3ccc(N4C[C@H](Cn5ccnn5)OC4=O)cc3F)cn2)=NO1 (single isomer, unassigned) [Example 32]
197 °C | – | CC(C)(O)C1CC(c2ccc(-c3ccc(N4C[C@H](Cn5ccnn5)OC4=O)cc3F)cn2)=NO1 (stereo partly drawn) [Example 15, (5R)-3-(3-Fluoro-4-{6-[5-(1-hydroxy-1-methylethyl)-4,5-dihydroisoxazol-3-yl]pyridin-3-yl}phenyl)-5-(1H-1,2,3-triazol-1-ylmethyl)-1,3-oxazolidin-2-one]
165 to 168 °C | – | CC(C)(C)OC(=O)C1CC(c2ccc(-c3ccc(N4C[C@H](Cn5ccnn5)OC4=O)cc3F)cn2)=NO1 (some centres unmarked) [Example 21]
190 to 194 °C | – | O=C(O)C1CC(c2ccc(-c3ccc(N4C[C@H](Cn5ccnn5)OC4=O)cc3F)cn2)=NO1 (stereo partly drawn) [Example 22, 3-(5-{2-Fluoro-4-[(5R)-2-oxo-5-(1H-1,2,3-triazol-1-ylmethyl)-1,3-oxazolidin-3-yl]phenyl}pyridin-2-yl)-4,5-dihydroisoxazole-5-carboxylic acid]
180 to 190 °C | – | CN(C)C(=O)C1CC(c2ccc(-c3ccc(N4C[C@H](Cn5ccnn5)OC4=O)cc3F)cn2)=NO1 (stereo partly drawn) [Example 23, 3-(5-{2-Fluoro-4-[(5R)-2-oxo-5-(1H-1,2,3-triazol-1-ylmethyl)-1,3-oxazolidin-3-yl]phenyl}pyridin-2-yl)-N,N-dimethyl-4,5-dihydroisoxazole-5-carboxamide]
185 to 195 °C | – | CNC(=O)C1CC(c2ccc(-c3ccc(N4C[C@H](Cn5ccnn5)OC4=O)cc3F)cn2)=NO1 (stereo partly drawn) [Example 24, 3-(5-{2-Fluoro-4-[(5R)-2-oxo-5-(1H-1,2,3-triazol-1-ylmethyl)-1,3-oxazolidin-3-yl]phenyl}pyridin-2-yl)-N-methyl-4,5-dihydroisoxazole-5-carboxamide]
210 °C | – | O=C1O[C@@H](Cn2ccnn2)CN1c1ccc(-c2ccc(C3=NOC(CS(=O)(=O)CCO)C3)nc2)c(F)c1 (stereo partly drawn) [Example 25, (5R)-3-{3-Fluoro-4-[6-(5-{[(2-hydroxyethyl)sulfonyl]methyl}-4,5-dihydroisoxazol-3-yl)pyridin-3-yl]phenyl}-5-(1H-1,2,3-triazol-1-ylmethyl)-1,3-oxazolidin-2-one]
225 °C | – | O=C1O[C@@H](Cn2ccnn2)CN1c1ccc(-c2ccc(C3=NOC(C4(O)CCCC4)C3)nc2)c(F)c1 (stereo partly drawn) [Example 28, (5R)-3-(3-Fluoro-4-{6-[5-(1-hydroxycyclopentyl)-4,5-dihydroisoxazol-3-yl]pyridin-3-yl}phenyl)-5-(1H-1,2,3-triazol-1-ylmethyl)-1,3-oxazolidin-2-one]
181 °C | – | O=C1O[C@@H](Cn2ccnn2)CN1c1ccc(-c2ccc(C3=NOC(CNCCc4ccncc4)C3)nc2)c(F)c1 (stereo partly drawn) [Example 33, (5R)-3-{3-Fluoro-4-[6-(5-{[(2-pyridin-4-ylethyl)amino]methyl}-4,5-dihydroisoxazol-3-yl)pyridin-3-yl]phenyl}-5-(1H-1,2,3-triazol-1-ylmethyl)-1,3-oxazolidin-2-one]
73 °C | – | CN1CCC(O)(C2CC(c3ccc(-c4ccc(N5C[C@H](Cn6ccnn6)OC5=O)cc4F)cn3)=NO2)CC1 (stereo partly drawn) [Example 34, (5R)-3-(3-Fluoro-4-{6-[5-(4-hydroxy-1-methylpiperidin-4-yl)-4,5-dihydroisoxazol-3-yl]pyridin-3-yl}phenyl)-5-(1H-1,2,3-triazol-1-ylmethyl)-1,3-oxazolidin-2-one]
195 °C | – | O=C1O[C@@H](Cn2ccnn2)CN1c1ccc(-c2ccc(C3=NOC(CS(=O)(=O)CCc4ccncc4)C3)nc2)c(F)c1 (stereo partly drawn) [Example 35, (5R)-3-{3-Fluoro-4-[6-(5-{[(2-pyridin-4-ylethyl)sulfonyl]methyl}-4,5-dihydroisoxazol-3-yl)pyridin-3-yl]phenyl}-5-(1H-1,2,3-triazol-1-ylmethyl)-1,3-oxazolidin-2-one]
167 °C | – | CCN(CC)CCC(=O)OC[C@@H]1CC(c2ccc(-c3ccc(N4C[C@H](Cn5ccnn5)OC4=O)cc3F)cn2)=NO1 [Example 43, [(5S)-3-(5-{2-Fluoro-4-[(5R)-2-oxo-5-(1H-1,2,3-triazol-1-ylmethyl)-1,3-oxazolidin-3-yl]phenyl}pyridin-2-yl)-4,5-dihydroisoxazol-5-yl]methyl N,N-diethyl-β-alaninate]
– | ~60 | O=C1O[C@@H](Cn2ccnn2)CN1c1ccc(-c2ccc(C3=NO[C@H]([C@H](O)CO)C3)nc2)c(F)c1 [Example 51, (5R)-3-[4-(6-{(5S)-5-[(1R)-1,2-Dihydroxyethyl]-4,5-dihydroisoxazol-3-yl}pyridin-3-yl)-3-fluorophenyl]-5-(1H-1,2,3-triazol-1-ylmethyl)-1,3-oxazolidin-2-one]
– | ~35 | O=C1O[C@@H](Cn2ccnn2)CN1c1ccc(-c2ccc(C3=NO[C@@H]([C@H](O)CO)C3)nc2)c(F)c1 [Example 52, (5R)-3-[4-(6-{(5R)-5-[(1R)-1,2-Dihydroxyethyl]-4,5-dihydroisoxazol-3-yl}pyridin-3-yl)-3-fluorophenyl]-5-(1H-1,2,3-triazol-ylmethyl)-1,3-oxazolidin-2-one]
– | 60 | O=C1O[C@@H](Cn2ccnn2)CN1c1ccc(-c2ccc(C3=NO[C@H]([C@@H](O)CO)C3)nc2)c(F)c1 [Example 53, (5R)-3-[4-(6-{(5S)-[(1S)-1,2-Dihydroxyethyl]-4,5-dihydroisoxazol-3-yl}pyridin-3-yl)-3-fluorophenyl]-5-(1H-1,2,3-triazol-1-ylmethyl)-1,3-oxazolidin-2-one]
– | 8 | O=C1O[C@@H](Cn2ccnn2)CN1c1ccc(-c2ccc(C3=NO[C@@H]([C@@H](O)CO)C3)nc2)c(F)c1 [Example 54, (5R)-3-[4-(6-{(5R)S-5-[(1S)-1,2-Dihydroxyethyl]-4,5-dihydroisoxazol-3-yl}pyridin-3-yl)-3-fluorophenyl]-5-(1H-1,2,3-triazol-1-ylmethyl)-1,3-oxazolidin-2-one]
130 °C | – | COCCC(=O)OC[C@@H](O)[C@@H]1CC(c2ccc(-c3ccc(N4C[C@H](Cn5ccnn5)OC4=O)cc3F)cn2)=NO1 [Example 56, (2R)-2-[(5S)-3-(5-{2-Fluoro-4-[(5R)-2-oxo-5-(1H-1,2,3-triazol-1-ylmethyl)-1,3-oxazolidin-3-yl]phenyl}pyridin-2-yl)-4,5-dihydroisoxazol-5-yl]-2-hydroxyethyl 3-methoxypropanoate]
210 °C | – | O=C(OC[C@@H](O)[C@@H]1CC(c2ccc(-c3ccc(N4C[C@H](Cn5ccnn5)OC4=O)cc3F)cn2)=NO1)c1cccnc1 [Example 57, (2R)-2-[(5S)-3-(5-{2-Fluoro-4-[(5R)-2-oxo-5-(1H-1,2,3-triazol-1-ylmethyl)-1,3-oxazolidin-3-yl]phenyl}pyridin-2-yl)-4,5-dihydroisoxazol-5-yl]-2-hydroxyethyl nicotinate]
125 °C | – | COCCOC(=O)OC[C@@H](O)[C@@H]1CC(c2ccc(-c3ccc(N4C[C@H](Cn5ccnn5)OC4=O)cc3F)cn2)=NO1 [Example 58, (2R)-2-[(5S)-3-(5-{2-Fluoro-4-[(5R)-2-oxo-5-(1H-1,2,3-triazol-1-ylmethyl)-1,3-oxazolidin-3-yl]phenyl}pyridin-2-yl)-4,5-dihydroisoxazol-5-yl]-2-hydroxyethyl 2-methoxyethyl carbonate]
175 to 180 °C (dec.) | – | N.N.N.N.O=C1O[C@@H](Cn2ccnn2)CN1c1ccc(-c2ccc(C3=NO[C@H]([C@@H](COP(=O)(O)O)OP(=O)(O)O)C3)nc2)c(F)c1 [Example 59, Phosphoric acid mono-(1R)-[(5R)-2-(3-{(5S)-[2-fluoro-4-(2-oxo-5-[1,2,3]triazol-1-ylmethyl-oxazolidin-3-yl)-phenyl]-pyridin-2-yl}-4,5-dihydro-isoxazol-5-yl)-2-phosphonooxy-ethyl]ester, tetrakis ammonium salt]
162 °C | – | O=C1O[C@@H](Cn2ccnn2)CN1c1ccc(-c2ccc(C3=NO[C@H](CSCCO)C3)nc2)c(F)c1 [Example 60, (5R)-3-{3-Fluoro-4-[6-((5S)-5-{[(2-hydroxyethyl)thio]methyl}-4,5-dihydroisoxazol-3-yl)pyridin-3-yl]phenyl}-5-(1H-1,2,3-triazol-1-ylmethyl)-1,3-oxazolidin-2-one]
185 °C | – | O=C1O[C@@H](Cn2ccnn2)CN1c1ccc(-c2ccc(C3=NO[C@H](COC(F)(F)F)C3)nc2)c(F)c1 [Example 61]
199 °C | – | O=C1O[C@@H](Cn2ccnn2)CN1c1ccc(-c2ccc(C3=NO[C@H](COCC(F)(F)F)C3)nc2)c(F)c1 [Example 62]
172 °C | – | COC[C@@H]1CC(c2ccc(-c3ccc(N4C[C@H](Cn5ccnn5)OC4=O)cc3F)cn2)=NO1 [Example 64, (5R)-3-(3-Fluoro-4-{6-[(5S)-5-(methoxymethyl)-4,5-dihydroisoxazol-3-yl]pyridin-3-yl}phenyl)-5-(1H-1,2,3-triazol-1-ylmethyl)-1,3-oxazolidin-2-one]
